The values below come from patent publication US20250206740A1, “PIPERIDINYL-METHYLPURINE PYRIMIDINES AND RELATED COMPOUNDS AND THEIR USE IN TREATING DISEASES AND CONDITIONS” (K36 Therapeutics, Inc., priority 2022, published 2025).

Chain of recombinant human NSD2 (O96028 2-1365 limits assumed): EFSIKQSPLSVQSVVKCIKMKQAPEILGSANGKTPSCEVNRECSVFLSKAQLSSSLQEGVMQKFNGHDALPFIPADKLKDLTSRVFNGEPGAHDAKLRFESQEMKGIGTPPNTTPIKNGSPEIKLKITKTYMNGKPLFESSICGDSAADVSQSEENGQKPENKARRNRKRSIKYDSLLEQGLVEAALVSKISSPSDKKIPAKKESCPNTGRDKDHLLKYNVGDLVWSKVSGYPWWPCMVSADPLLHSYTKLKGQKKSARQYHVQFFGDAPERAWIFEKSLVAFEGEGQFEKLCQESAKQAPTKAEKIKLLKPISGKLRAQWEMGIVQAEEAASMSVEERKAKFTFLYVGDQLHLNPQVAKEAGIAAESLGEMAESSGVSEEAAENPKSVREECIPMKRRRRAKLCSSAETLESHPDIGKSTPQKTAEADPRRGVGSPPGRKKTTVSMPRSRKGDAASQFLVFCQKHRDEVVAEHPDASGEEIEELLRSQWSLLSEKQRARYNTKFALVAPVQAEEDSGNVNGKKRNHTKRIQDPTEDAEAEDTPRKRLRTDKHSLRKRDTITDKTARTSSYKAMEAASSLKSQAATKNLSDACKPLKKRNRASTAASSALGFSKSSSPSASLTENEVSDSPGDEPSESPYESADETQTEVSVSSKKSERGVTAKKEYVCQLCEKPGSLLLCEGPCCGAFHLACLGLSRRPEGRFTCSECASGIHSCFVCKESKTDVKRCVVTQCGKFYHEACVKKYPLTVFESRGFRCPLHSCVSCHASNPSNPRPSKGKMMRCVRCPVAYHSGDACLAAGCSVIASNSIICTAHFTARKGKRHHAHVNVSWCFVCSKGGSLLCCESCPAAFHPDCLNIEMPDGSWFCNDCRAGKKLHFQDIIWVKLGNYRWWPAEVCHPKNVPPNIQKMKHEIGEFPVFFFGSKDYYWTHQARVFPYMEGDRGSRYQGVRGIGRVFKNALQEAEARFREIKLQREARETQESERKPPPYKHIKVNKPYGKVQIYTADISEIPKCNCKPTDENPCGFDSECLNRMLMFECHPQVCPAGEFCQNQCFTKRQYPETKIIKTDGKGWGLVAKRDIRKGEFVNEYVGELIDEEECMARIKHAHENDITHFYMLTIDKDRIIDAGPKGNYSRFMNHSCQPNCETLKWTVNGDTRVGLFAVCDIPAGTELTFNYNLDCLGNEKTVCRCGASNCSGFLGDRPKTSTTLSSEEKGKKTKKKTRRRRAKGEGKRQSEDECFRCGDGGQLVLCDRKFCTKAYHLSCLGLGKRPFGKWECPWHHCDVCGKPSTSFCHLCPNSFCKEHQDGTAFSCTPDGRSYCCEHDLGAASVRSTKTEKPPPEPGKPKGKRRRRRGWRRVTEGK

The experiment addresses recombinant human NSD2 (Homo sapiens (Human), UniProt O96028). Description: NSD2 inhibitory activity, modified RBC HotSpot HMT Assay (radiometric, 3H-SAM, oligonucleosome substrate). The format is biochemical. The note with it: recombinant human NSD2 2 nM, oligonucleosomes from Chicken 0.05 mg/ml, 3H-SAM 1 μM, 1 hour at 30° C. The method, then: Exemplary compounds were tested for NSD2 inhibitory activity using a modified RBC HotSpot HMT Assay.
A reaction mixture was prepared by adding oligonucleosomes from Chicken (0.05 mg/ml) to freshly prepared reaction buffer containing 50 mM Tris-HCl (pH 8.5), 50 mM NaCl, 5 mM MgCl2, 0.01% Brij35, 1 mM DTT, and 1% DMSO followed by the addition of recombinant human NSD2, (amino acids 2-end) with N-terminal His tag (2 nM; GenBank Accession No. NM_001042424; MW=155.5 kDa; expressed in Sf9 insect cells) and gentle mixing. The test compounds were diluted in DMSO, added to the reaction mixture in nanoliter amounts by using Acoustic Technology (Echo 550, LabCyte Inc. Sunnyvale, CA) and incubated for 20 minutes at room temperature. The reaction was initiated by the addition of S-Adenosyl-L-[methyl-^3H] methionine (3H-SAM; 1 μM), and the mixture was incubated for 1 hour at 30° C. The reaction mixture was delivered to filter paper and the methylated substrate was quantified by scintillation counting. Data analysis was performed using Excel and GraphPad Prism software for IC50 curve fits. For additional information on the histone methyltransferase assay, see, for example, Horiuchi K Y, et al., “Assay Development for Histone Methyltransferases,” Assay Drug Dev Technol. 2013 May; 11 (4): 227-36.
Turning to `COc1cc(F)c(-c2nc(Cn3cnc4c(N)ncnc43)c(N3CCC[C@@](N)([C@H](O)C(F)F)C3)s2)cc1F` [II-2], the IC50 is 10 to 100 nM.

Regarding `COc1cc(F)c(-c2ncc(N3CCC[C@](N)([C@H](O)C(F)F)C3)c(Cn3cnc4c(N)ncnc43)n2)cc1F` [Compound I-1, (S)-1-((R)-3-amino-1-(4-((6-amino-9H-purin-9-yl)methyl)-2-(2,5-difluoro-4-methoxyphenyl)pyrimidin-5-yl)piperidin-3-yl)-2,2-difluoroethan-1-ol], the IC50 lay in the range of 100 to 1000 nM.

`COc1cc(F)c(-c2cc(Cn3cnc4c(N)ncnc43)c(N3CCC[C@](N)([C@H](O)C(F)F)C3)nn2)cc1F` [Compound I-6, (S)-1-((R)-3-amino-1-(4-((6-amino-9H-purin-9-yl)methyl)-6-(2,5-difluoro-4-methoxyphenyl)pyridazin-3-yl)piperidin-3-yl)-2,2-difluoroethan-1-ol]: the IC50 was 100 to 1000 nM.
